Experiments:
[1] = test system: ALOMY; experiment: Herbicidal post-emergence action 1a (greenhouse pots, visual rating); type: in vivo, Alopecurus myosuroides; settings: rated visually about 3 weeks after treatment, 100% = plants have died, 0% = like control plants
Description: (§1) [table] a) Seeds of monocotyledonous and dicotyledonous weeds and crop plants are placed in sandy loam in plastic or organic plant pots, covered with soil and cultivated in a greenhouse under controlled growth conditions. 2 to 3 weeks after sowing, the test plants are treated at the one-leaf stage. The compounds of the invention, formulated in the form of wettable powders (WP) or as emulsion concentrates (EC), are then sprayed onto the green parts of the plants as aqueous suspension or emulsion with addition of 0.5% additive at a water application rate of 600 1/ha (converted). After the test plants have been kept in the greenhouse under optimum growth conditions for about 3 weeks, the activity of the preparations is rated visually in comparison to untreated controls. For example, 100% activity=the plants have died, 0% activity=like control plants. Tables A1 to A15 below show the effects of selected compounds of the general formula (I) according to Tables 1 and 2 on various harmful plants and an application rate corresponding to 320 g/ha and/or 80 g/ha, which were obtained by the experimental procedure mentioned above.

[2] = test system: AVEFA; experiment: as above; type: in vivo, Avena fatua; settings: rated visually about 3 weeks after treatment, 100% = plants have died, 0% = like control plants
Description: as §1

[3] = test system: LOLRI; experiment: as above; type: in vivo, Lolium rigidum; settings: Dosage 320 g/ha; rated visually about 3 weeks after treatment; 100% = plants have died, 0% = like control plants
Description: as §1

[4] = test system: AMARE; experiment: as above; type: in vivo, Amaranthus retroflexus; settings: visual rating about 3 weeks after treatment
Description: as §1

[5] = test system: POLCO; experiment: as above; type: in vivo, Polygonum convolvulus; settings: visual rating about 3 weeks after treatment
Description: as §1

[6] = test system: VERPE; experiment: as above; type: in vivo, Veronica persica; settings: visual rating about 3 weeks after treatment
Description: as §1

[7] = test system: ALOMY; experiment: Herbicidal pre-emergence action 2a (greenhouse pots, visual scoring); type: in vivo, Alopecurus myosuroides; settings: dosage 320 g/ha, visual scoring after about 3 weeks
Text: (§2) [table] a) Seeds of monocotyledonous and dicotyledonous weed plants and crop plants are placed in plastic or organic plant pots and covered with soil. The compounds of the invention, formulated in the form of wettable powders (WP) or as emulsion concentrates (EC), are then applied onto the surface of the covering soil as aqueous suspension or emulsion with addition of 0.5% additive at a water application rate of 600 1/ha (converted). After the treatment, the pots are placed in a greenhouse and kept under good growth conditions for the trial plants. After about 3 weeks, the effect of the preparations is scored visually in comparison with untreated controls as percentages. For example, 100% activity=the plants have died, 0% activity=like control plants. Tables B1 to B15 below show the effects of selected compounds of the general formula (I) according to Tables 1 and 2 on various harmful plants and an application rate corresponding to 320 g/ha and/or 80 g/ha, which were obtained by the experimental procedure mentioned above.

[8] = test system: AVEFA; experiment: as above; type: in vivo, Avena fatua; settings: dosage 320 g/ha, visual scoring after about 3 weeks
Text: as §2

[9] = test system: LOLRI; experiment: as above; type: in vivo, Lolium rigidum; settings: dosage 320 g/ha, visual scoring after about 3 weeks vs untreated controls
Text: as §2

[10] = test system: SETVI; experiment: as above; type: in vivo, Setaria viridis; settings: dosage 320 g/ha, visual scoring after about 3 weeks vs untreated controls
Text: as §2

[11] = test system: POLCO; experiment: as above; type: in vivo, Polygonum convolvulus; settings: dosage 320 g/ha, visual scoring after about 3 weeks vs untreated controls
Text: as §2

[12] = test system: VERPE; experiment: as above; type: in vivo, Veronica persica; settings: dosage 320 g/ha, visual scoring after about 3 weeks vs untreated controls
Text: as §2

[13] = test system: ECHCG; experiment: Herbicidal post-emergence action 1a (greenhouse pots, visual rating); type: in vivo, Echinochloa crus-galli; settings: Dosage 320 g/ha; rated visually about 3 weeks after treatment; 100% = plants have died, 0% = like control plants
Description: as §1

[14] = test system: SETVI; experiment: as above; type: in vivo, Setaria viridis; settings: rated visually about 3 weeks after treatment, 100% = plants have died, 0% = like control plants
Description: as §1

[15] = test system: AMARE; experiment: Herbicidal pre-emergence action 2a (greenhouse pots, visual scoring); type: in vivo, Amaranthus retroflexus; settings: dosage 320 g/ha, visual scoring after about 3 weeks vs untreated controls
Text: as §2

[16] = test system: POAAN; experiment: Herbicidal post-emergence action 1b (twin sowing, 1280 g/ha); type: in vivo, Poa annua; settings: dosage 1280 g/ha, visual rating about 3 weeks after treatment
Description: (§3) [table] b) Seeds of mono- and dicotyledonous weed plants are placed in plastic pots in sandy loam soil (twin sowing with one species each of mono- or dicotyledonous weed plants per pot), covered with soil and cultivated in a greenhouse under controlled growth conditions. 2 to 3 weeks after sowing, the test plants are treated at the one-leaf stage. The compounds of the invention, formulated in the form of wettable powders (WP) or as emulsion concentrates (EC), are applied to the green parts of the plants as aqueous suspension or emulsion with addition of 0.5% additive at a water application rate equivalent to 600 litres per hectare. After the test plants have been kept in the greenhouse under optimum growth conditions for about 3 weeks, the activity of the preparations is rated visually in comparison to untreated controls. For example, 100% activity=the plants have died, 0% activity=like control plants. Tables A16 to A21 below show the effects of selected compounds of the general formula (I) according to Tables 1 and 2 on various harmful plants and at an application rate corresponding to 1280 g/ha, which were obtained by the experimental procedure mentioned above.

[17] = test system: MATIN; experiment: as above; type: in vivo, Matricaria inodora; settings: dosage 1280 g/ha, visual rating about 3 weeks after treatment
Description: as §3

[18] = test system: STEME; experiment: as above; type: in vivo, Stellaria media; settings: dosage 1280 g/ha, visual rating about 3 weeks after treatment
Description: as §3

[19] = test system: POAAN; experiment: Herbicidal pre-emergence action 2b (doubly sown, 1280 g/ha); type: in vivo, Poa annua; settings: doubly sown pots, dosage 1280 g/ha, visual scoring after about 3 weeks
Text: (§4) [table] b) Seeds of mono- and dicotyledonous weed plants are placed in plastic pots in sandy loam soil (doubly sown with one species each of mono- or dicotyledonous weed plants per pot) and covered with soil. The compounds of the invention, formulated in the form of wettable powders (WP) or as emulsion concentrates (EC), are then applied onto the surface of the covering soil as aqueous suspension or emulsion with addition of 0.5% additive at a water application rate equivalent to 600 litres per hectare. After the treatment, the pots are placed in a greenhouse and kept under good growth conditions for the trial plants. After about 3 weeks, the effect of the preparations is scored visually in comparison with untreated controls as percentages. For example, 100% activity=the plants have died, 0% activity=like control plants. Tables B16 to B21 below show the effects of selected compounds of the general formula (I) according to Tables 1 and 2 on various harmful plants and at an application rate corresponding to 1280 g/ha, which were obtained by the experimental procedure mentioned above.

[20] = test system: DIGSA; experiment: as above; type: in vivo, Digitaria sanguinalis; settings: doubly sown pots, dosage 1280 g/ha, visual scoring after about 3 weeks
Text: as §4

[21] = test system: AMARE; experiment: as above; type: in vivo, Amaranthus retroflexus; settings: doubly sown pots, dosage 1280 g/ha, visual scoring after about 3 weeks
Text: as §4

[22] = test system: MATIN; experiment: as above; type: in vivo, Matricaria inodora; settings: doubly sown pots, dosage 1280 g/ha, visual scoring after about 3 weeks
Text: as §4

[23] = test system: STEME; experiment: as above; type: in vivo, Stellaria media; settings: doubly sown pots, dosage 1280 g/ha, visual scoring after about 3 weeks
Text: as §4

[24] = test system: ABUTH; experiment: Herbicidal post-emergence action 1a (greenhouse pots, visual rating); type: in vivo, Abutilon theophrasti; settings: visual rating about 3 weeks after treatment
Description: as §1

[25] = test system: MATIN; experiment: as above; type: in vivo, Matricaria inodora; settings: dosage 320 g/ha, visual rating about 3 weeks after treatment
Description: as §1

SMILES | Post-emergence action against ALOMY in % ([1]; Dosage 80 g/ha) | Post-emergence action against ALOMY in % ([1]; Dosage 320 g/ha) | Post-emergence action against AVEFA in % ([2]; Dosage 320 g/ha) | Post-emergence action against LOLRI in % [3] | Post-emergence action against AMARE in % ([4]; dosage 320 g/ha) | Post-emergence action against POLCO in % ([5]; dosage 320 g/ha) | Post-emergence action against VERPE in % ([6]; dosage 320 g/ha) | Pre-emergence action against ALOMY in % [7] | Pre-emergence action against AVEFA in % [8] | Pre-emergence action against LOLRI in % [9] | Pre-emergence action against SETVI in % [10] | Pre-emergence action against POLCO in % [11] | Pre-emergence action against VERPE in % [12] | Post-emergence action against ECHCG in % [13] | Post-emergence action against SETVI in % ([14]; Dosage 320 g/ha) | Pre-emergence action against AMARE in % [15] | further results
CCOC(=O)[C@@H](C)Oc1nn(-c2cnccn2)c(-c2ccc(F)nc2)c1C1CC1 [Example I-88] | 80% | 100% | 100% | 100% | 80% | 80% | 80% | 100% | 90% | 100% | 80% | 80% | 90% | – | – | – | –
COC(=O)CNC(=O)[C@@H](C)Oc1nn(-c2cnccn2)c(-c2ccc(F)nc2)c1Br [II-03] | 80% | 90% | 90% | – | 90% | 80% | – | 100% | 100% | 100% | 100% | 90% | 100% | 80% | 90% | 100% | Post-emergence action against SETVI in % ([14]; Dosage 80 g/ha): 90%
COC(=O)[C@@H](C)Oc1nn(-c2cnccn2)c(-c2cnc(F)c(F)c2)c1Br [Example I-43] | – | – | – | – | – | – | – | – | – | – | – | – | – | – | – | – | Post-emergence action at 1280 g/ha against POAAN in % [16]: 100%; Post-emergence action at 1280 g/ha against MATIN in % [17]: 100%; Post-emergence action at 1280 g/ha against STEME in % [18]: 90%; Pre-emergence action at 1280 g/ha against POAAN in % [19]: 100%; Pre-emergence action at 1280 g/ha against DIGSA in % [20]: 100%; Pre-emergence action at 1280 g/ha against AMARE in % [21]: 100%; Pre-emergence action at 1280 g/ha against MATIN in % [22]: 90%; Pre-emergence action at 1280 g/ha against STEME in % [23]: 100%
COC(=O)[C@@H](C)Oc1nn(-c2cnccn2)c(-c2ccc(F)nc2)c1I [Example I-89] | 80% | 100% | 100% | 100% | 90% | 90% | 90% | 100% | – | 100% | 100% | – | 100% | 80% | 90% | 100% | Post-emergence action against AVEFA in % ([2]; Dosage 80 g/ha): 90%; Post-emergence action against ABUTH in % ([24]; dosage 80 g/ha): 90%; Post-emergence action against ABUTH in % ([24]; dosage 320 g/ha): 90%; Post-emergence action against AMARE in % ([4]; dosage 80 g/ha): 90%; Post-emergence action against MATIN in % [25]: 80%; Post-emergence action against POLCO in % ([5]; dosage 80 g/ha): 90%; Post-emergence action against VERPE in % ([6]; dosage 80 g/ha): 80%
